The compounds below were run against T1, pY641-STAT6 in PBMC (Homo sapiens, UniProt P42226) (assay: MSD-pSTAT-PBMC Assay (pSTAT6, IL-4 stimulated)). Conditions: PBMC, compound 3 hrs, then 1 ng/mL IL-4 for 10 min; Table 115; read-out: STAT6.
T1 construct: Cryopreserved Peripheral Blood Mononuclear Cells (PBMC) are from AllCells; host or cells: cryopreserved PBMC
T1 sequence (P42226 1-847): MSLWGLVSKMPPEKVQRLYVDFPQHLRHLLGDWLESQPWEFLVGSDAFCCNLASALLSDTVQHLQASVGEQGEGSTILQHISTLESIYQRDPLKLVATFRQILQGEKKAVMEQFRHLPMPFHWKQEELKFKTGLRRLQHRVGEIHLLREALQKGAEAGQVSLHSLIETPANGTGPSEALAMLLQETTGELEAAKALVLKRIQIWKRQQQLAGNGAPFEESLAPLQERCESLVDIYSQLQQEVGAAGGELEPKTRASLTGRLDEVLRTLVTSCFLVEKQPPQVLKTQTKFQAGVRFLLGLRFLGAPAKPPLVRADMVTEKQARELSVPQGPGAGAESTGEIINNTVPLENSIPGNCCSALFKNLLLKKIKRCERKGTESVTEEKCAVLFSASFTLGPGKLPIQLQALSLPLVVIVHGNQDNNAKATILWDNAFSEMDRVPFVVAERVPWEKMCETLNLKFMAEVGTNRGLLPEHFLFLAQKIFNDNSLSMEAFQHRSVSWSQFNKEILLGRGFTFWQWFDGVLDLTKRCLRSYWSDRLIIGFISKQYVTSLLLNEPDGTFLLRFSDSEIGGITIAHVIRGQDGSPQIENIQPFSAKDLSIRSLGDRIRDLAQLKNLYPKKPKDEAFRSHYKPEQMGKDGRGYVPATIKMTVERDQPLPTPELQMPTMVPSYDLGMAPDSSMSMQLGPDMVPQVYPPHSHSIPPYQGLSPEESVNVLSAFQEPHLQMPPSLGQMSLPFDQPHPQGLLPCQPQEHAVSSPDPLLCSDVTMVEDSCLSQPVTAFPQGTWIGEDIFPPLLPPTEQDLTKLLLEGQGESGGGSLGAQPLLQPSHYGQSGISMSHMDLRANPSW
Assay type: cell-based
Summary of the method: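 Cells are preincubated with compound for 3 hrs, then stimulated for 10 min, IL-4 at 1 ng/mL driving STAT6 phosphorylation and IL-6 at 10 ng/mL driving STAT3. Phospho-STAT in lysates is quantified by MSD immunoassay, and IC50 is fitted after subtracting unstimulated wells.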

Compound `CCCOC(=O)[C@H](C)NP(=O)(Oc1ccccc1)[C@@H](F)c1ccc2sc(C(=O)N[C@H]3CCC[C@H]4CC[C@@H](C(=O)N5C[C@H](c6ccc(C)cc6)[C@@H](C#N)C56CC6)N4C3=O)cc2c1` (stereo partly drawn) [Compound 479] has an IC50 of under 0.1 µM.

Same assay, conditions: STAT6, PBMC, compound 3 hrs, then 1 ng/mL IL-4 for 10 min; Table 115

`CCCOC(=O)[C@H](C)NP(=O)(Oc1ccccc1)C(F)c1ccc2sc(C(=O)N[C@H]3CCC[C@H]4CC[C@@H](C(=O)N5CC(c6cccnc6)CC56CC6)N4C3=O)cc2c1` (stereo partly drawn) [Compound 456, propyl ((fluoro(2-(((3S,6S,9aS)-5-oxo-3-(6-(pyridin-3-yl)-4-azaspiro[2.4]heptane-4-carbonyl)octahydro-1H-pyrrolo[1,2-a]azepin-6-yl)carbamoyl)benzo [b]thiophen-5-yl)methyl)(phenoxy)phosphoryl)-L-alaninate] and `CCCOC(=O)[C@H](C)NP(=O)(Oc1ccccc1)[C@@H](F)c1ccc2sc(C(=O)N[C@H]3CC[C@@H](C)C[C@H]4CC[C@@H](C(=O)N5C[C@@H](c6cccnc6)CC56CC6)N4C3=O)cc2c1` (stereo partly drawn) [Compound 470, propyl (((R)-fluoro(2-(((3S,6S,9R,10aR)-9-methyl-5-oxo-3-((R)-6-(pyridin-3-yl)-4-azaspiro[2.4]heptane-4-carbonyl)decahydropyrrolo[1,2-a]azocin-6-yl)carbamoyl)benzo [b]thiophen-5-yl)methyl)(phenoxy)phosphoryl)-L-alaninate] cannot be ordered by IC50: under 0.1 µM for the first, under 0.1 µM for the second.

`CCCOC(=O)[C@H](C)NP(=O)(Oc1ccccc1)C(F)c1ccc2sc(C(=O)N[C@H]3CCCC[C@H]4CC[C@@H](C(=O)N5CCC(c6cnn(C)c(=O)c6)C5)N4C3=O)cc2c1` (stereo partly drawn) [Compound 465, propyl ((fluoro(2-(((3S,6S,10aS)-3-(3-(1-methyl-6-oxo-1,6-dihydropyridazin-4-yl)pyrrolidine-1-carbonyl)-5-oxodecahydropyrrolo [1,2-a]azocin-6-yl)carbamoyl)benzo [b]thiophen-5-yl)methyl)(phenoxy)phosphoryl)-L-alaninate] and `CCCOC(=O)[C@H](C)NP(=O)(Oc1ccccc1)C(F)c1ccc2sc(C(=O)N[C@H]3CCCC[C@H]4CC[C@@H](C(=O)N5CCC(O)(c6ccn(C)c(=O)c6)C5)N4C3=O)cc2c1` (stereo partly drawn) [Compound 466, propyl ((fluoro(2-(((3S,6S,10aS)-3-(3-hydroxy-3-(1-methyl-2-oxo-1,2-dihydropyridin-4-yl)pyrrolidine-1-carbonyl)-5-oxodecahydropyrrolo [1,2-a]azocin-6-yl)carbamoyl)benzo [b]thiophen-5-yl)methyl)(phenoxy)phosphoryl)-L-alaninate] cannot be ordered by IC50: over 3 µM for the first, over 3 µM for the second.

Compared with `CCCOC(=O)[C@H](C)NP(=O)(Oc1ccccc1)C(F)c1ccc2sc(C(=O)N[C@H]3CCCC[C@H]4CC[C@@H](C(=O)N5C(=O)N(c6cccnc6)CC56CC6)N4C3=O)cc2c1` (stereo partly drawn) [Compound 467, propyl ((fluoro(2-(((3S,6S,10aS)-5-oxo-3-(5-oxo-6-(pyridin-3-yl)-4,6-diazaspiro[2.4]heptane-4-carbonyl)decahydropyrrolo[1,2-a]azocin-6-yl)carbamoyl)benzo [b]thiophen-5-yl)methyl)(phenoxy)phosphoryl)-L-alaninate], `CCCOC(=O)[C@H](C)NP(=O)(Oc1ccccc1)[C@@H](F)c1ccc2sc(C(=O)N[C@H]3CCCC[C@H]4CC[C@@H](C(=O)N5C(=O)N(c6cccnc6)C(=O)C56CC6)N4C3=O)cc2c1` (stereo partly drawn) [Compound 468, propyl (((R)-(2-(((3S,6S,10aS)-3-(5,7-dioxo-6-(pyridin-3-yl)-4,6-diazaspiro[2.4]heptane-4-carbonyl)-5-oxodecahydropyrrolo [1,2-a]azocin-6-yl)carbamoyl)benzo [b]thiophen-5-yl)fluoromethyl) (phenoxy)phosphoryl)-L-alaninate] is lower in IC50: over 3 µM for the first, under 0.1 µM for the second. The second is the more potent here.

First: CCCOC(=O)[C@H](C)NP(=O)(Oc1ccccc1)[C@@H](F)c1ccc2sc(C(=O)N[C@H]3CCC[C@H]4CC[C@@H](C(=O)N5C(=O)N(c6cccnc6)C(=O)C56CC6)N4C3=O)cc2c1 (stereo partly drawn) [Compound 469, propyl (((R)-(2-(((3S,6S,9aS)-3-(5,7-dioxo-6-(pyridin-3-yl)-4,6-diazaspiro[2.4]heptane-4-carbonyl)-5-oxooctahydro-1H-pyrrolo[1,2-a]azepin-6-yl)carbamoyl)benzo [b]thiophen-5-yl)fluoromethyl) (phenoxy)phosphoryl)-L-alaninate]
Second: CCCOC(=O)[C@H](C)NP(=O)(Oc1ccccc1)C(F)c1ccc2sc(C(=O)N[C@H]3CCCC[C@H]4CC[C@@H](C(=O)N5C(=O)N(c6cncc(F)c6)C(=O)C56CC6)N4C3=O)cc2c1 (stereo partly drawn) [Compound 473, propyl ((fluoro(2-(((3S,6S,10aS)-3-(6-(5-fluoropyridin-3-yl)-5,7-dioxo-4,6-diazaspiro[2.4]heptane-4-carbonyl)-5-oxodecahydropyrrolo [1,2-a]azocin-6-yl)carbamoyl)benzo [b]thiophen-5-yl)methyl)(phenoxy)phosphoryl)-L-alaninate]
The IC50 of the first is lower: 0.1 to 1 µM for the first, over 3 µM for the second. The first is the more potent here.

`CCC(CC)COC(=O)[C@H](C)NP(=O)(Oc1ccccc1)[C@@H](F)c1ccc2sc(C(=O)N[C@H]3CCCC[C@H]4CC[C@@H](C(=O)N5C[C@@H](c6cccnc6)CC56CC6)N4C3=O)cc2c1` (stereo partly drawn) [Compound 471, 2-ethylbutyl (((R)-fluoro(2-(((3S,6S,10aS)-5-oxo-3-((R)-6-(pyridin-3-yl)-4-azaspiro[2.4]heptane-4-carbonyl)decahydropyrrolo[1,2-a]azocin-6-yl)carbamoyl)benzo [b]thiophen-5-yl)methyl)(phenoxy)phosphoryl)-L-alaninate] and `CC(C)OC(=O)[C@H](C)NP(=O)(Oc1ccccc1)[C@@H](F)c1ccc2sc(C(=O)N[C@H]3CCCC[C@H]4CC[C@@H](C(=O)N5C[C@@H](c6cccnc6)CC56CC6)N4C3=O)cc2c1` (stereo partly drawn) [Compound 474, isopropyl (((R)-fluoro(2-(((3S,6S,10aS)-5-oxo-3-((R)-6-(pyridin-3-yl)-4-azaspiro[2.4]heptane-4-carbonyl)decahydropyrrolo[1,2-a]azocin-6-yl)carbamoyl)benzo [b]thiophen-5-yl)methyl)(phenoxy)phosphoryl)-L-alaninate] cannot be ordered by IC50: under 0.1 µM for the first, under 0.1 µM for the second.

`C[C@H](NP(=O)(Oc1ccccc1)[C@@H](F)c1ccc2sc(C(=O)N[C@H]3CCCC[C@H]4CC[C@@H](C(=O)N5C[C@@H](c6cccnc6)CC56CC6)N4C3=O)cc2c1)C(=O)OCc1ccccc1` (stereo partly drawn) [Compound 472, benzyl (((R)-fluoro(2-(((3S,6S,10aS)-5-oxo-3-((R)-6-(pyridin-3-yl)-4-azaspiro[2.4]heptane-4-carbonyl)decahydropyrrolo[1,2-a]azocin-6-yl)carbamoyl)benzo [b]thiophen-5-yl)methyl)(phenoxy)phosphoryl)-L-alaninate] and `C[C@H](NP(=O)(Oc1ccccc1)[C@@H](F)c1ccc2sc(C(=O)N[C@H]3CCCC[C@H]4CC[C@@H](C(=O)N5C[C@@H](c6cccnc6)CC56CC6)N4C3=O)cc2c1)C(=O)OCC(C)(C)C` (stereo partly drawn) [Compound 477, neopentyl (((R)-fluoro(2-(((3S,6S,10aS)-5-oxo-3-((R)-6-(pyridin-3-yl)-4-azaspiro[2.4]heptane-4-carbonyl)decahydropyrrolo[1,2-a]azocin-6-yl)carbamoyl)benzo [b]thiophen-5-yl)methyl)(phenoxy)phosphoryl)-L-alaninate] cannot be ordered by IC50: under 0.1 µM for the first, under 0.1 µM for the second.

First: CC(C)OC(=O)[C@H](C)NP(=O)(Cc1ccc2sc(C(=O)N[C@H]3CCCC[C@H]4CC[C@@H](C(=O)N5C[C@@H](c6cccnc6)CC56CC6)N4C3=O)cc2c1)Oc1ccccc1 (stereo partly drawn) [Compound 475, isopropyl (((2-(((3S,6S,10aS)-5-oxo-3-((R)-6-(pyridin-3-yl)-4-azaspiro[2.4]heptane-4-carbonyl)decahydropyrrolo[1,2-a]azocin-6-yl)carbamoyl)benzo [b]thiophen-5-yl)methyl)(phenoxy)phosphoryl)-L-alaninate]
Second: CCCOC(=O)[C@H](C)NP(=O)(Cc1ccc2sc(C(=O)N[C@H]3CCCC[C@H]4CC[C@@H](C(=O)N5C[C@@H](c6cccnc6)CC56CC6)N4C3=O)cc2c1)Oc1ccccc1 (stereo partly drawn) [Compound 476, propyl (((2-(((3S,6S,10aS)-5-oxo-3-((R)-6-(pyridin-3-yl)-4-azaspiro[2.4]heptane-4-carbonyl)decahydropyrrolo[1,2-a]azocin-6-yl)carbamoyl)benzo [b]thiophen-5-yl)methyl)(phenoxy)phosphoryl)-L-alaninate]
The IC50 of the first is higher: 0.1 to 1 µM for the first, under 0.1 µM for the second.

Reference: patent US20250215029A1 (Recludix Pharma, Inc., priority 2022, published 2025)
